The results in this text go back to patent US20180112258A1, “MEDICAL USES AND METHODS FOR TREATING CANCER USING MONOPOLAR SPINDLE 1 (MPS1) KINASE INHIBITORS” (THE INSTITUTE OF CANCER RESEARCH: ROYAL CANCER HOSPITAL, priority 2015, published 2018).

Positions count from the first letter of the chain named. Where two headings read alike, the source gives them in different places.

Assay [1] concerns parental HCT116 cells. The experiment in a line: Time-lapse microscopy, time in mitosis, parental HCT116. The class given is cell-based, human. As for the experimental part: For analysis by immunofluorescence, cells were fixed in 1% formaldehyde for 5 min at room temperature, quenched in glycine, washed in PBS-Triton X-100 (0.1% PBS-T) and incubated for 1 hour in primary antibodies in PBS-T: MAD2 (Bethyl Laboratories Inc., A300-301A), CDC2020 (Millipore, MAB3775), MPS1 (Millipore, 05-682), MPS1 pT33pS37 (Life Technologies, 44-1325G) and ACA (ImmunoVision, HST-0100). After PBS-T washes, cells were incubated with fluorescent-conjugated secondary antibodies (Life Technologies), stained with DAPI (Life Technologies) and mounted onto slides with Vectashield (Vector Labs). Images were acquired using a Zeiss LSM 710 confocal microscope and processed using Velocity 3D Image analysis software (PerkinElmer). Time-lapse micrscopy was performed in 96-well Ibidi plate (Thistle Scientific) using a Diaphot inverted microscope (Nikon), in a humidified CO2 chamber at 37° C., using a motorized stage (Prior Scientific), controlled by Simple PCI software (Compix).

Assay [2] has as its system parental HCT116 cells. The experiment in a line: Flow cytometry cell cycle profiles, parental HCT116. The class given is cell-based, human. To be noted: 1 and 2 μM AZ3146, 24 hours. As for the experimental part: Cells were fixed overnight at −20° C. in 70% ethanol, washed in PBS, then incubated in 10 μg/ml propidium iodide and 0.5% RNase (Sigma) for 30 min and then analysed using LSRII flow cytometer (BD Biosciences).

For assay [3], the system named is parental HCT116 cells. The experiment in a line: Cell viability assay (CellTiterGlo, 4 days), parental HCT116. It counts as cell-based, human. For orientation: Cellular ATP, detected with luciferase, serves as a proxy for viable cell number.
Assay [4] relates to HCT116 cells containing MPS1 p.C604W. Put plainly: Cell viability assay, HCT116 NvR clones with MPS1 p.C604W (NvR12 etc.). To be noted: for resistance / potency in cell viability assay vs parental: p.C604W (NvR12); for Resistance conferred by mutation p.C604W: summary table of inhibitors vs mutations; for GI50: Homo sapiens.
The target of assay [5] is T1, recombinant full-length MPS1 p.C604W (Homo sapiens, UniProt P33981, C604W).
T1 construct: made in house; host or cells: Sf9 insect cells (baculovirus, modified pFastBac1)
T1 sequence (P33981 1-857 C604W): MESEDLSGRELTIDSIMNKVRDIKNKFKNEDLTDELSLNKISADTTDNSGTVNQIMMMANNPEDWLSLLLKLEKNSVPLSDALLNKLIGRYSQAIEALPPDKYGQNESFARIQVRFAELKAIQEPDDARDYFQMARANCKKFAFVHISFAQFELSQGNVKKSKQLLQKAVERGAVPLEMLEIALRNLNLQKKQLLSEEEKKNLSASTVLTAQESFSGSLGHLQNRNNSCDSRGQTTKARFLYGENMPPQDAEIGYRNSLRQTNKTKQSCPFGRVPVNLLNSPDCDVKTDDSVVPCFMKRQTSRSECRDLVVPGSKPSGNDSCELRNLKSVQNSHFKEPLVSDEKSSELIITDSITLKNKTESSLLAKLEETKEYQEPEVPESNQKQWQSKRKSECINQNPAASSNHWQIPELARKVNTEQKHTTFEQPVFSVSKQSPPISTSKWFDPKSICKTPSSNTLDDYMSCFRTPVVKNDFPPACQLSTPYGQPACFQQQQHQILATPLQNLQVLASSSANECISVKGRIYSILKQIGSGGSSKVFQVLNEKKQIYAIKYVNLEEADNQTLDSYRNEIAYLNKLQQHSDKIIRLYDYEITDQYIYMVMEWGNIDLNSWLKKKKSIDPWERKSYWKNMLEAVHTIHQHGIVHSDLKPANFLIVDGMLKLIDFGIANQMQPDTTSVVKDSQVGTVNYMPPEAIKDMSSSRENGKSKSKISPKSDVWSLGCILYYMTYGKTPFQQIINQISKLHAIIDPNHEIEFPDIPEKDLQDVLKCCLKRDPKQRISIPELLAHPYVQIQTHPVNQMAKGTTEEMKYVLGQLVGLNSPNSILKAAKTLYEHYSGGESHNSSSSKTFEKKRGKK
Put plainly: Recombinant MPS1 kinase assay (electrophoretic mobility shift), p.C604W. It counts as biochemical. Particulars: for IC50: C604W, mean ± SD, quadruplicate. As for the experimental part:
(§1) For high ATP concentration assays, 1 mM ATP was used. An ECHO® 550 (Labcyte Inc) acoustic dispenser was used to generate duplicate 8 point dilution curves directly into 384-well low-volume polystyrene assay plates (Corning Life Sciences). The reaction was carried out for 90 min at room temperature.

Assay [6] has as its system HCT116 cells containing MPS1 p.M600T. Put plainly: Cell viability assay, HCT116 NvR clones with MPS1 p.M600T (NvR1 etc.). To be noted: for Resistance conferred by mutation p.M600T: summary table of inhibitors vs mutations; for GI50: Homo sapiens.
Assay [7] concerns the target T2, recombinant full-length wild-type MPS1 (Homo sapiens, UniProt P33981).
T2 construct: For protein expression of full-length MPS1 proteins, Sf9 insect cells were grown at 27° C; made in house; host or cells: Sf9 insect cells (baculovirus, modified pFastBac1)
T2 sequence (P33981 1-857): T1 sequence (P33981 1-857 C604W) with W604C
Put plainly: Recombinant MPS1 kinase assay (electrophoretic mobility shift), WT. It counts as biochemical. Particulars: mean ± SD, quadruplicate. As for the experimental part: as §1

Setting [8] is: ATP at Km, read-out: IC50 values at ATP Km.
Where [9] appears, read: IC50 values at 1 mM ATP, 1 mM ATP.

For orientation: GI50 means the concentration that inhibits growth by half. One may read the IC50 as the concentration that gives 50% inhibition.

As for `COc1cc(OC2CCN(C)CC2)ccc1Nc1ncc2c(n1)n(C1CCCC1)c(=O)n2C` [AZ3146], the “time to exit mitosis” value in the assay on parental HCT116 cells [1] (2 μM AZ3146) amounted to 10 min. In addition, the “effect on cell cycle profile” value in the assay with parental HCT116 cells [2] was “G1 and G2/M peaks are increasingly abolished”. Also, the “lethal concentration in cell viability assays” value in the assay with parental HCT116 cells [3] came out at 2 µM. The GI50 with parental HCT116 cells [3] (Homo sapiens, HCT-116) worked out at 800 nM.

For `Cn1cc(-c2ccc(Nc3ccc(C#N)c(NC4CCCCC4)n3)cc2OCC#N)cn1` [ONCOII], the “resistance / potency in cell viability assay vs parental” value in assay [4] is “able to confer resistance”. In assay [4], the “Resistance conferred by mutation p.C604W” value was “R”. For the same molecule, the IC50 in assay [5] (setting [8]) was 2600 ± 650 nM; in assay [5] (setting [9]), 8300 ± 2900 nM; in assay [7] (setting [8]), 10.8 ± 3.7 nM; in assay [7] (setting [9]), 110 ± 18 nM. Moreover, the “fold resistance of recombinant p.C604W vs wild-type protein” value in assay [5] (recombinant full-length MPS1 (Table 2)) was determined as 75 fold. The “resistance in cell viability assay vs parental” value in assay [6] (p.M600T (NvR1)) is given as “able to confer resistance”. Further, in assay [6], the “Resistance conferred by mutation p.M600T” value is listed as “R”.

As to `CCc1cccc(CC)c1NC(=O)c1nn(C)c2c1CCc1cnc(Nc3ccc(C(=O)NC4CCN(C)CC4)cc3OC(F)(F)F)nc1-2` [NMS-P715], the GI50 in assay [4] (HCT-116, read-out: GI50 NMS-P715, NvR9, p.C604W) turned out to be 2150 nM; in assay [4] (HCT-116, read-out: GI50 NMS-P715, NvR12, p.C604W) it was 2430 nM; in assay [4] (HCT-116, read-out: GI50 NMS-P715, NvR13, p.C604W) it was 4250 nM; in assay [4] (HCT-116, read-out: GI50 NMS-P715, NvR14, p.C604W) it was 3730 nM; in assay [4] (HCT-116, read-out: GI50 NMS-P715, NvR15, p.C604W), 3820 nM; in assay [4] (HCT-116, read-out: GI50 NMS-P715, NvR16, p.C604W), 3260 nM. Besides, the GI50 in assay [4] (HCT-116, read-out: GI50 NMS-P715, NvR17, p.C604W) was found to be 3760 nM; in assay [4] (HCT-116, read-out: GI50 NMS-P715, NvR18, p.C604W), 3760 nM; in assay [4] (HCT-116, read-out: GI50 NMS-P715, NvR19, p.C604W), 3500 nM; in assay [4] (HCT-116, read-out: GI50 NMS-P715, NvR20, p.C604W), 3860 nM; in assay [4] (HCT-116, read-out: GI50 NMS-P715, NvR21, p.C604W) it was 2120 nM; in assay [4] (HCT-116, read-out: GI50 NMS-P715, NvR22, p.C604W), 2200 nM. Also, the 50% growth inhibitory concentration (GI50) in assay [4] (HCT-116, read-out: GI50 NMS-P715, NvR23, p.C604W) came out at 2270 nM; in assay [4] (HCT-116, read-out: GI50 NMS-P715, NvR24, p.C604W), 2240 nM; in assay [4] (HCT-116, read-out: GI50 NMS-P715, NvR25, p.C604W) it was 4330 nM; in assay [4] (HCT-116, read-out: GI50 NMS-P715, NvR26, p.C604W) it was 2250 nM; in assay [4] (HCT-116, read-out: GI50 NMS-P715, NvR29, p.C604W), 4080 nM; in assay [4] (HCT-116, read-out: GI50 NMS-P715, NvR30, p.C604W), 1240 nM. In addition, the concentration for 50% growth inhibition (GI50) in assay [4] (HCT-116, read-out: GI50 NMS-P715, NvR34, p.C604W) came out at 2090 nM; in assay [4] (HCT-116, read-out: GI50 NMS-P715, NvR35, p.C604W), 2440 nM; in assay [6] (HCT-116, read-out: GI50 NMS-P715, NvR1, p.M600T), 2540 nM; in assay [6] (HCT-116, read-out: GI50 NMS-P715, NvR2, p.M600T), 1850 nM; in assay [6] (HCT-116, read-out: GI50 NMS-P715, NvR4, p.M600T), 2250 nM; in assay [6] (HCT-116, read-out: GI50 NMS-P715, NvR5, p.M600T), 2480 nM. Moreover, in assay [6] (HCT-116, read-out: GI50 NMS-P715, NvR6, p.M600T), the GI50 was 2320 nM. The “mitotic exit (SAC override)” value with parental HCT116 cells [1] (1 μM NMS-P715) is “rapidly exited mitosis”.

With `Cc1ncc(-c2ccc(Nc3cc4c(cn3)cc(-c3cnn(C)c3)n4C(=O)OC(C)C)c(F)c2)n1C` [Compound 3, isopropyl 6-(4-(1,2-dimethyl-1H-imidazol-5-yl)-2-fluorophenylamino)-2-(1-methyl-1H-pyrazol-4-yl)-1H-pyrrolo[3,2-c]pyridine-1-carboxylate], the “resistance / potency in cell viability assay vs parental” value in assay [4] is listed as “more potent”. The “fold resistance in cell viability assay vs parental” value in assay [6] (p.M600T (NvR1)) is on record as about 2 fold. Moreover, the “Resistance conferred by mutation p.M600T” value in assay [6] is “R”.

As for `CC(C)(C)Nc1nc(Nc2ccc(C(N)=O)cc2)cc(N)c1C#N` [SNG12], the “Resistance conferred by mutation p.C604W” value in assay [4] is reported as “R”. The “Resistance conferred by mutation p.M600T” value in assay [6] was “R”.
